According to patent US6737383B1, “Herbicidal oxadiazolidines” (priority 1999, dated 2004):

Columns and labels:
rice = test: Test B flood test rice; type: in vivo, Oryza sativa
Procedure, shortened: (§1)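 Each value is a visual injury score relative to controls, with 10 meaning complete control and 0 no effect. Evaluation took place twelve to sixteen days after the 2-leaf-stage plants were treated and kept in the greenhouse.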

corn = test: Test B pre/postemergence corn; type: in vivo, Zea mays
Procedure, shortened: (§2)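 Herbicidal effect was estimated by eye on a ten-point control scale after plants spent twelve to sixteen days in a greenhouse following soil or foliar treatment. Foliar sprays targeted plants at one to four leaves; all doses were formulated in a non-phytotoxic solvent with surfactant.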

pigweed = test: Test B pre/postemergence pigweed; type: in vivo, Amaranthus retroflexus
Procedure, shortened: as §2

crabgrass = test: Test B pre/postemergence crabgrass; type: in vivo, Digitaria sanguinalis
Procedure, shortened: as §2

purple nutsedge = test: Test B pre/postemergence purple nutsedge; type: in vivo, Cyperus rotundus
Procedure, shortened: as §2

wheat = test: Test B pre/postemergence wheat; type: in vivo, Triticum aestivum
Procedure, shortened: as §2

bamyardgrass = test: Test B flood test barnyardgrass; type: in vivo, Echinochloa crus-galli
Procedure, shortened: as §1

smallflower flatsedge = test: Test B flood test smallflower flatsedge; type: in vivo, Cyperus difformis
Procedure, shortened: as §1

rape = test: Test B pre/postemergence rape; type: in vivo, Brassica napus
Procedure, shortened: as §2

sugar beet = test: Test B pre/postemergence sugar beet; type: in vivo, Beta vulgaris
Procedure, shortened: as §2

duck salad = test: Test B flood test duck salad; type: in vivo, Heteranthera limosa
Procedure, shortened: as §1

soybean = test: Test B pre/postemergence soybean; type: in vivo, Glycine max
Procedure, shortened: as §2

blackgrass = test: Test B pre/postemergence blackgrass; type: in vivo, Alopecurus myosuroides
Procedure, shortened: as §2

cocklebur = test: Test B pre/postemergence cocklebur; type: in vivo, Xanthium strumarium
Procedure, shortened: as §2

surinam grass = test: Test B pre/postemergence surinam grass; type: in vivo, Brachiaria decumbens
Procedure, shortened: as §2

giant foxtail = test: Test B pre/postemergence giant foxtail; type: in vivo, Setaria faberii
Procedure, shortened: as §2

[1] = Postemergence (flood test species), Rate 125 g/ha, scale of 0 to 10 where 0 is no effect and 10 is complete control
[2] = Rate 62 g/ha, Postemergence section, flood test species, scale of 0 to 10 where 0 is no effect and 10 is complete control
[3] = Rate 250 g/ha, Postemergence (flood test), scale 0 to 10, 0 is no effect, 10 is complete control
[4] = Rate 250 g/ha, headed Pre-emergence (flood test species), scale 0 to 10 (0 no effect, 10 complete control)
[5] = Rate 500 g/ha, headed Pre-emergence (flood test species), scale 0 to 10 (0 no effect, 10 complete control)
[6] = Rate 500 g/ha, listed under Postemergence (flood test species), scale 0 to 10, 0 no effect, 10 complete control
[7] = Rate 1000 g/ha, Pre-emergence (as headed), scale 0 to 10
[8] = Rate 2000 g/ha, Pre-emergence (as headed), scale 0 to 10
[9] = Postemergence, Rate 125 g/ha, scale of 0 to 10 where 0 is no effect and 10 is complete control
[10] = Preemergence, Rate 62 g/ha, scale 0 to 10 (0 no effect, 10 complete control)
[11] = Preemergence, Rate 125 g/ha, 0 is no effect, 10 is complete control
[12] = Preemergence, Rate 250 g/ha, scale 0 to 10, 0 is no effect, 10 is complete control
[13] = Preemergence, Rate 500 g/ha, scale 0 to 10 (0 no effect, 10 complete control)
[14] = Rate 62 g/ha, Postemergence, scale of 0 to 10 where 0 is no effect and 10 is complete control
[15] = Rate 250 g/ha, Postemergence, scale 0 to 10, 0 is no effect, 10 is complete control
[16] = Rate 500 g/ha, Postemergence, scale 0 to 10, 0 no effect, 10 complete control
[17] = Postemergence, Rate 62 g/ha, scale 0 to 10, 0 is no effect, 10 is complete control

CC(C)N(C(=O)n1oc(=O)n(-c2cnn(C)c2)c1=O)c1ccccc1 [Compound 123]
Rice plant response rating (rice; [1]): 0
Rice plant response rating (rice; [2]): 0
Plant response rating, Rice (rice; [3]): 0
Rice plant response rating (rice; [4]): 0
Plant response rating, Rice (rice; [5]): 0
Rice plant response rating (rice; [6]): 0
Rice plant response rating (rice; [7]): 0
Rice plant response rating (rice; [8]): 0
Corn plant response rating (corn; [9]): 0
Corn plant response rating (corn; [10]): 0
Corn plant response rating (0 to 10 scale) (corn; [11]): 0
Corn plant response rating (corn; [12]): 0
Corn plant response rating (corn; [13]): 0
Corn plant response rating (corn; [14]): 0
Plant response rating, Corn (corn; [15]): 0
Corn plant response rating (corn; [16]): 0
Redroot pigweed plant response rating (pigweed; [10]): 0
Redroot pigweed plant response rating (0 to 10 scale) (pigweed; [11]): 4
Redroot pigweed plant response rating (pigweed; [12]): 5
Redroot pigweed plant response rating (pigweed; [13]): 9
Redroot pigweed plant response rating (pigweed; [14]): 0
Plant response rating, Redroot pigweed (pigweed; [15]): 2
Redroot pigweed plant response rating (pigweed; [16]): 2
Crabgrass plant response rating (crabgrass; [9]): 4
Crabgrass plant response rating (crabgrass; [10]): 4
Crabgrass plant response rating (0 to 10 scale) (crabgrass; [11]): 5
Crabgrass plant response rating (crabgrass; [12]): 5
Crabgrass plant response rating (crabgrass; [13]): 7
Crabgrass plant response rating (crabgrass; [14]): 0
Plant response rating, Crabgrass (crabgrass; [15]): 8
Crabgrass plant response rating (crabgrass; [16]): 9
Nutsedge plant response rating (purple nutsedge; [9]): 0
Nutsedge plant response rating (purple nutsedge; [10]): 0
Nutsedge plant response rating (0 to 10 scale) (purple nutsedge; [11]): 0
Nutsedge plant response rating (purple nutsedge; [12]): 0
Nutsedge plant response rating (purple nutsedge; [13]): 0
Nutsedge plant response rating (purple nutsedge; [14]): 0
Plant response rating, Nutsedge (purple nutsedge; [15]): 0
Nutsedge plant response rating (purple nutsedge; [16]): 0
Wheat plant response rating (wheat; [9]): 1
Wheat plant response rating (wheat; [10]): 0
Wheat plant response rating (0 to 10 scale) (wheat; [11]): 0
Wheat plant response rating (wheat; [12]): 5
Wheat plant response rating (wheat; [13]): 7
Wheat plant response rating (wheat; [14]): 0
Plant response rating, Wheat (wheat; [15]): 1
Wheat plant response rating (wheat; [16]): 4
Barnyardgrass plant response rating (bamyardgrass; [1]): 0
Barnyardgrass plant response rating (bamyardgrass; [17]): 0
Plant response rating, Barnyardgrass (bamyardgrass; [3]): 0
Barnyardgrass plant response rating (bamyardgrass; [4]): 0
Plant response rating, Barnyardgrass (bamyardgrass; [5]): 0
Barnyardgrass plant response rating (bamyardgrass; [6]): 0
Barnyardgrass plant response rating (bamyardgrass; [7]): 0
Barnyardgrass plant response rating (bamyardgrass; Rate 2000 g/ha, Pre-emergence (as headed), scale 0 to 10, 0 no effect, 10 complete control): 0
S. Flatsedge plant response rating (smallflower flatsedge; [1]): 0
S. Flatsedge plant response rating (smallflower flatsedge; Pre-emergence, Rate 1000 g/ha, scale 0 to 10 (0 no effect, 10 complete control)): 0
S. Flatsedge plant response rating (smallflower flatsedge; [2]): 0
Plant response rating, S. Flatsedge (smallflower flatsedge; [3]): 0
S. Flatsedge plant response rating (smallflower flatsedge; [4]): 0
Plant response rating, S. Flatsedge (smallflower flatsedge; [5]): 0
S. Flatsedge plant response rating (smallflower flatsedge; [6]): 0
S. Flatsedge plant response rating (smallflower flatsedge; [8]): 0
Rape plant response rating (rape; [9]): 0
Rape plant response rating (rape; [10]): 0
Rape plant response rating (0 to 10 scale) (rape; [11]): 0
Rape plant response rating (rape; [12]): 0
Rape plant response rating (rape; [13]): 0
Rape plant response rating (rape; [14]): 0
Plant response rating, Rape (rape; [15]): 0
Rape plant response rating (rape; [16]): 2
Sugarbeets plant response rating (sugar beet; [9]): 0
Sugarbeets plant response rating (sugar beet; [10]): 0
Sugarbeets plant response rating (0 to 10 scale) (sugar beet; [11]): 3
Sugarbeets plant response rating (sugar beet; [12]): 5
Sugarbeets plant response rating (sugar beet; [13]): 7
Sugarbeets plant response rating (sugar beet; [14]): 0
Plant response rating, Sugarbeets (sugar beet; [15]): 1
Sugarbeets plant response rating (sugar beet; [16]): 2
Ducksalad plant response rating (duck salad; [1]): 0
Ducksalad plant response rating (duck salad; [2]): 0
Plant response rating, Ducksalad (duck salad; [3]): 0
Ducksalad plant response rating (duck salad; [4]): 0
Plant response rating, Ducksalad (duck salad; [5]): 0
Ducksalad plant response rating (duck salad; [6]): 0
Ducksalad plant response rating (duck salad; [7]): 0
Ducksalad plant response rating (duck salad; [8]): 0
Soybean plant response rating (soybean; [9]): 4
Soybean plant response rating (soybean; [10]): 0
Soybean plant response rating (0 to 10 scale) (soybean; [11]): 0
Soybean plant response rating (soybean; [12]): 0
Soybean plant response rating (soybean; [13]): 0
Soybean plant response rating (soybean; [14]): 2
Plant response rating, Soybean (soybean; [15]): 4
Soybean plant response rating (soybean; [16]): 4
Blackgrass plant response rating (blackgrass; [9]): 6
Blackgrass plant response rating (blackgrass; [10]): 0
Blackgrass plant response rating (0 to 10 scale) (blackgrass; [11]): 0
Blackgrass plant response rating (blackgrass; [12]): 4
Blackgrass plant response rating (blackgrass; [13]): 7
Blackgrass plant response rating (blackgrass; [14]): 2
Plant response rating, Blackgrass (blackgrass; [15]): 6
Blackgrass plant response rating (blackgrass; [16]): 7
Cocklebur plant response rating (cocklebur; [9]): 0
Cocklebur plant response rating (cocklebur; [10]): 0
Cocklebur plant response rating (0 to 10 scale) (cocklebur; [11]): 0
Cocklebur plant response rating (cocklebur; [12]): 0
Cocklebur plant response rating (cocklebur; [13]): 0
Cocklebur plant response rating (cocklebur; [14]): 0
Plant response rating, Cocklebur (cocklebur; [15]): 0
Cocklebur plant response rating (cocklebur; [16]): 1
B. signalgrass plant response rating (surinam grass; [17]): 0
B. signalgrass plant response rating (surinam grass; [9]): 0
B. signalgrass plant response rating (surinam grass; [10]): 0
B. signalgrass plant response rating (0 to 10 scale) (surinam grass; [11]): 0
B. signalgrass plant response rating (surinam grass; [12]): 0
B. signalgrass plant response rating (surinam grass; [13]): 2
Plant response rating, B. signalgrass (surinam grass; [15]): 3
B. signalgrass plant response rating (surinam grass; Rate 500 g/ha, Postemergence, scale of 0 to 10 where 0 is no effect and 10 is complete control): 5
Giant foxtail plant response rating (giant foxtail; [9]): 5
Giant foxtail plant response rating (giant foxtail; [10]): 7
Giant foxtail plant response rating (0 to 10 scale) (giant foxtail; [11]): 9
Giant foxtail plant response rating (giant foxtail; [12]): 9
Giant foxtail plant response rating (giant foxtail; [13]): 10
Giant foxtail plant response rating (giant foxtail; [14]): 3
Plant response rating, Giant foxtail (giant foxtail; [15]): 8
Giant foxtail plant response rating (giant foxtail; [16]): 9
